We go through 51 compounds from patent US12721838B2 (Henry Ford Health System, priority 2020, dated 2026).

Each structure is given as a SMILES string.

The assay has as its target T1, Trib2-Luciferase (Luc-Trib2) fusion (Homo sapiens, UniProt Q92519).
T1 sequence (Q92519 with tags, fused parts or gaps): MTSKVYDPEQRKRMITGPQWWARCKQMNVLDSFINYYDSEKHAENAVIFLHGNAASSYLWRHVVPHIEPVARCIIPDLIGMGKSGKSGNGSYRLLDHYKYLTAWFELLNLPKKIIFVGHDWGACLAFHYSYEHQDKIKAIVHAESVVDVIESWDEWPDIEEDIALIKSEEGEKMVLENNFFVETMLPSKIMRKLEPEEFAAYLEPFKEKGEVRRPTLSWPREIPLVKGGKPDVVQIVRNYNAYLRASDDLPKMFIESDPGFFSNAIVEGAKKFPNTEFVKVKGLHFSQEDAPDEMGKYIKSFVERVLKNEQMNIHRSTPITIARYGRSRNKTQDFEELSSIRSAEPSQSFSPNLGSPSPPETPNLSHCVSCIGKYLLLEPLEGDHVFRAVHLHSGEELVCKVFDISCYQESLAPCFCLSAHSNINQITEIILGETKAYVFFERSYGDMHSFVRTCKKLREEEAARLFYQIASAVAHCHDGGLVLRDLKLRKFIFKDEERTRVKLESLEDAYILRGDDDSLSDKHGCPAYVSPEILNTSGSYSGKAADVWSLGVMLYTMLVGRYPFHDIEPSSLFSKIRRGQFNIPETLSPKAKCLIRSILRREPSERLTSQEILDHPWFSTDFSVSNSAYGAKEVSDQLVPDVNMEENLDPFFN
Kind of assay: cell-based. The settings on record: HFF, read-out: Luciferase activity (%).

Take `CCC(=O)NCC[C@@H]1CCc2ccc3c(c21)CCO3` [Ramelteon]: the activity at 10 µM was determined as 100%.
The value for `CC(C)(Oc1ccc(Cl)cc1)C(=O)O` [Clofibric acid] was 87%; that for `COc1ccccc1OCC(O)CN1CCN(CC(=O)Nc2c(C)cccc2C)CC1` (stereo not drawn) [Ranolazine] was 100%; that for `C[C@@](Cc1ccc(O)c(O)c1)(NN)C(=O)O` [Carbidopa] was 92%.
As for `Cn1c([N+](=O)[O-])cnc1COC(N)=O` [Ronidazole], the figure is 100%.
As for `Cc1ccc(C(=O)Nc2ccc(CN3CCN(C)CC3)c(C(F)(F)F)c2)cc1C#Cc1cnc2cccnn12` [Ponatinib], the figure is 42%; as for `CS(=O)(=O)OCCCCOS(C)(=O)=O` [Busulfan], 100%; as for `O=C1Nc2ccc(Cl)cc2[C@@](C#CC2CC2)(C(F)(F)F)O1` [Efavirenz], 89%.
`CC1CCc2c(N3CCC(O)CC3)c(F)cc3c(=O)c(C(=O)O)cn1c23` (stereo not drawn) [Nadifloxacin]: the activity at 10 µM is 96%.
As for `O=C(O)CCCc1ccc(N(CCCl)CCCl)cc1` [Chlorambucil], the activity at 10 µM came out at 96%.
The value for `CCCC1O[C@@H]2C[C@H]3[C@@H]4CCC5=CC(=O)C=C[C@]5(C)[C@H]4[C@@H](O)C[C@]3(C)[C@]2(C(=O)CO)O1` (stereo partly drawn) [Budesonide] was 83%; that for `CCc1c2c(nc3ccc(OC(=O)N4CCC(N5CCCCC5)CC4)cc13)-c1cc3c(c(=O)n1C2)COC(=O)[C@]3(O)CC` [Irinotecan] was 85%.
The value for `CN1[C@@H]2CC[C@H]1C[C@@H](OC(=O)C(CO)c1ccccc1)C2` (stereo partly drawn) [Atropine] was 67%; that for `CCOC(=O)OC(C)OC1=C(C(=O)Nc2ccccn2)N(C)S(=O)(=O)c2ccccc21` (stereo not drawn) [Ampiroxicam] was 28%; that for `Nc1ccc(S(=O)(=O)Nc2ncccn2)cc1` [Sulfadiazine] was 70%.
Take `Cc1c(OCC(F)(F)F)ccnc1C[S+]([O-])c1nc2ccccc2[nH]1` (stereo not drawn) [Lansoprazole]: the activity at 10 µM was found to be 78%.
For the compound `CN(C)C(=O)Oc1ccc[n+](C)c1` [Pyridostigmine], the activity at 10 µM turned out to be 76%.
Turning to `CC(=O)N1C[C@H](O)C[C@H]1C(=O)O` [Oxaceprol], the activity at 10 µM came out at 100%.
For the compound `CC(C)OC(=O)C(C)(C)Oc1ccc(C(=O)c2ccc(Cl)cc2)cc1` [Fenofibrate], the activity at 10 µM was determined as 92%.
The value for `Cc1cn([C@@H]2C[C@@H](O)[C@H](CO)O2)c(=O)[nH]c1=O` [Telbivudine] was 91%.
As for `COc1ccc(CN2CCNCC2)c(OC)c1OC` [Trimetazidine], the figure is 100%.
The value for `CCOC(=O)c1cncn1[C@H](C)c1ccccc1` [Etomidate] was 100%; that for `CCCCCCCCc1ccc(CCC(N)(CO)CO)cc1` [Fingolimod] was 80%.
For `CN1CCN2c3ccccc3Cc3ccccc3C2C1` (stereo not drawn) [Mianserin], the activity at 10 µM was 55%.
For `Cc1cccc(C)c1OCC(C)N` (stereo not drawn) [Mexiletine], the activity at 10 µM amounted to 86%.
For `O=c1[nH]c(=O)n(C2CCCO2)cc1F` (stereo not drawn) [Tegafur], the activity at 10 µM is 100%.
The value for `CCOC(=O)[C@@H](N)Cc1ccc(-c2cc(O[C@H](c3ccc(Cl)cc3-n3ccc(C)n3)C(F)(F)F)nc(N)n2)cc1` [Telotristat etiprate] was 94%; that for `Cc1cn(-c2cc(NC(=O)c3ccc(C)c(Nc4nccc(-c5cccnc5)n4)c3)cc(C(F)(F)F)c2)cn1` [Nilotinib] was 99%; that for `CN(C)CCCN1c2ccccc2CCc2ccccc21` [Imipramine] was 86%.
Regarding `OC1(c2ccc(Cl)c(C(F)(F)F)c2)CCN(CCCC(c2ccc(F)cc2)c2ccc(F)cc2)CC1` [Penfluridol], the activity at 10 µM amounted to 71%.
The value for `COc1cccc2c1C(=O)c1c(O)c3c(c(O)c1C2=O)C[C@@](O)(C(=O)CO)C[C@@H]3O[C@H]1C[C@H](N)[C@H](O)[C@H](C)O1` [Doxorubicin] was 28%.
As for `CN(C)c1cc(NC(=O)CNC(C)(C)C)c(O)c2c1C[C@H]1C[C@H]3[C@H](N(C)C)C(O)=C(C(N)=O)C(=O)[C@@]3(O)C(O)=C1C2=O` [Tigecycline], the figure is 63%; as for `CC[C@H]1OC(=O)[C@H](C)[C@@H](O[C@H]2C[C@@](C)(OC)[C@@H](O)[C@H](C)O2)[C@H](C)[C@@H](O[C@@H]2O[C@H](C)C[C@H](N(C)C)[C@H]2O)[C@](C)(O)C[C@@H](C)[C@@H]2N[C@@H](COCCOC)O[C@H]([C@H]2C)[C@]1(C)O` [Dirithromycin], 100%; as for `Fc1ccc([C@@H]2CCNC[C@H]2COc2ccc3c(c2)OCO3)cc1` [Paroxetine], 93%.
As for `OB1OCc2cc(F)ccc21` [Tavaborole], the figure is 75%; as for `CC(C)N1CCN(c2ccc(OCC3COC(Cn4cncn4)(c4ccc(Cl)cc4Cl)O3)cc2)CC1` (stereo not drawn) [Terconazole], 82%.
As for `CC1(C)CCC(C)(C)c2cc(NC(=O)c3ccc(C(=O)O)cc3)ccc21` [Tamibarotene], the activity at 10 µM was 100%.
Turning to `O[C@@H]1CO[C@H]2[C@@H]1OC[C@@H]2O` [Isosorbide], the activity at 10 µM turned out to be 91%.
The value for `CC(=O)OCC(=O)[C@@]12OC(C)(C)O[C@@H]1C[C@H]1[C@@H]3C[C@H](F)C4=CC(=O)C=C[C@]4(C)[C@@]3(F)[C@@H](O)C[C@@]12C` [Fluocinonide] was 78%.
As to `COc1cc2nc(N3CCN(C(=O)c4ccco4)CC3)nc(N)c2cc1OC` [Prazosin], the activity at 10 µM worked out at 49%.
The value for `CCCOc1ccc(C(=O)OCCN(CC)CC)cc1N` [Proparacaine] was 88%.
As for `CCOC(=O)N[C@@H]1CC[C@@H]2[C@@H](C1)C[C@H]1C(=O)O[C@H](C)[C@H]1[C@H]2/C=C/c1ccc(-c2cccc(F)c2)cn1` [Vorapaxar], the figure is 59%; as for `C[C@H]1c2cccc(O)c2C(=O)C2=C(O)[C@]3(O)C(=O)C(C(N)=O)=C(O)[C@@H](N(C)C)[C@@H]3[C@@H](O)[C@@H]21` [Doxycycline], 91%.
As for `OCCN(CCO)c1nc(N2CCCCC2)c2nc(N(CCO)CCO)nc(N3CCCCC3)c2n1` [Dipyridamole], the figure is 98%; as for `O=C(O)c1cc(=O)c2c(OCC(O)COc3cccc4oc(C(=O)O)cc(=O)c34)cccc2o1` [Cromolyn], 93%.
In the case of `NCCC[C@H](NC(=O)[C@@H]1CCCN1C(=O)[C@@H]1CSSC[C@H](N)C(=O)N[C@@H](Cc2ccc(O)cc2)C(=O)N[C@@H](Cc2ccccc2)C(=O)N[C@@H](CCC(N)=O)C(=O)N[C@@H](CC(N)=O)C(=O)N1)C(=O)NCC(N)=O` [Ornipressin], the activity at 10 µM was 27%.
With `C#Cc1cccc(Nc2ncnc3cc(OCCOC)c(OCCOC)cc23)c1` [Erlotinib], the activity at 10 µM is 50%.
As for `CC1(C)S[C@@H]2[C@H](NC(=O)[C@H](C(=O)O)c3ccsc3)C(=O)N2[C@H]1C(=O)O` [Ticarcillin], the figure is 87%.
As for `COc1ccc2c(c1OC)C(=O)O[C@@H]2[C@H]1c2c(cc3c(c2OC)OCO3)CCN1C` [Noscapine], the figure is 100%.
As for `NC(N)=Nc1nc(CSCCC(N)=NS(N)(=O)=O)cs1` [Famotidine], the figure is 100%; as for `O=C(O)CCNC(=O)c1ccccc1` [Betamipron], 87%.
